pEC50: −log10 of the molar value.

The target of the experiment is T1, AXOR109 (Homo sapiens, UniProt Q8TDU6).
T1 construct: expressed in transfected cells; host or cells: melanophore cells, transfected by electroporation
T1 sequence (Q8TDU6 1-330): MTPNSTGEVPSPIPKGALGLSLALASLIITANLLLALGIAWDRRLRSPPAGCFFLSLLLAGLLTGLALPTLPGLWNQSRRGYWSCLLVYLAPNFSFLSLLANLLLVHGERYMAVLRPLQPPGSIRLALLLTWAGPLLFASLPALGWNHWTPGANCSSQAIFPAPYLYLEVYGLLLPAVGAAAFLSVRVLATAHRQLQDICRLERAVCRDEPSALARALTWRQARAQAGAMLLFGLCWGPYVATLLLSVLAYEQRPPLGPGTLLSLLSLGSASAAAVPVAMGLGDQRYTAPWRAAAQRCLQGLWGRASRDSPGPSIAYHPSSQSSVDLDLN
The experiment is described as follows: Human AXOR109/Melanophore Assay. The following applies: melanophore assay; for Emax: 1 h, normalized to alpha-MSH system max; for pEC50: AXOR109 transfected melanophores. The experiment is classed as cell-based. The protocol: AXOR109 is a Gs-coupled receptor and therefore increases intracellular cAMP leading to melanosome dispersion. Compounds of the present invention were characterized in a melanophore assay as described in Jayawickreme C K, et al., Current Protocols in Pharmacology (2005) 12.9.1-12.9.16. Briefly, melanophore cells are transfected by electroporation with AXOR109 expressing cDNA. Cells are then plated in 384 well clear bottom plates at 8E3 cells per well in 50 μl of conditioned fibroblast media (CFM). Compounds to be tested are serially diluted 3-fold in DMSO and further diluted 1:100 with melanophore assay buffer (MAB)+10 nM Melatonin to yield 11 point concentration response curves. Following 2 hour incubation with MAB+1% DMSO+10 nM Melatonin, initial transmittance is read on a TwisterII/Spectramax plate reader. Compounds are then added to the cells and incubated for 1 hour, and final transmittance is read as before. Results are compared to vehicle (MAB+1% DMSO+10 nM Melatonin) and to a positive control (MAB+1% DMSO+10 nM Melatonin+200 nM alpha-MSH). Data are calculated for each well as follows: 1-(Transmitance-final/Transmitance-initial). Each well result is then normalized to alpha-MSH, the system max control for Gs/Gq coupled receptors using the following equation: (ObjX−Control1)/(Control2−Control1)*100. The percent system max is used to generate the pEC50 using the equation: y=((Vmax*x̂n)/(K̂n+x̂n))+Y2. Acceptable Z-prime values should be >0.4. Compounds of the present invention have a pEC50≧5.0 in the above described assay.

The Emax is the greatest response seen or fitted, relative to the assay's reference. As a reminder, the pEC50 is the EC50 on a negative log10 scale, so that one unit is a factor of ten. A high value points to a small EC50. With `COc1ccc(S(=O)(=O)N(C)CCN(C)S(=O)(=O)c2ccc(OC)c(OC)c2)cc1` [Example 15, N-methyl-N-[2-(methyl{[4-(methyloxy)phenyl]sulfonyl}amino)ethyl]-3,4-bis(methyloxy)benzenesulfonamide], the maximal response (Emax) lay within 76 to 100% and the negative logarithm of the EC50 (pEC50) was 6.00 to 6.90. As to `COc1ccc(S(=O)(=O)N2C[C@H](C)N(S(=O)(=O)c3ccc(OS(C)(=O)=O)c(OC)c3)C[C@@H]2C)cc1OC` [Example 63, 4-[((2S,5S)-4-{[3,4-bis(methyloxy)phenyl]sulfonyl}-2,5-dimethyl-1-piperazinyl)sulfonyl]-2-(methyloxy)phenyl methanesulfonate], the pEC50 is 5.00 to 5.90.

For `COc1ccc(S(=O)(=O)N2CCCN(S(=O)(=O)c3ccc(OC)c(OC)c3)C(C)C2)cc1OC` (centres unmarked) [Example 49, 1,4-bis{[3,4-bis(methyloxy)phenyl]sulfonyl}-2-methylhexahydro-1H-1,4-diazepine], the Emax lay within 51 to 75% and the negative-log EC50 (pEC50) was 5.00 to 5.90. Molecule `COc1ccc(S(=O)(=O)N2C[C@@H]3C[C@H]2CN3S(=O)(=O)c2ccc(OC)c(OC)c2)cc1OC` [Example 86] gave an Emax of 76 to 100% and a pEC50 of 5.00 to 5.90.

The molecule `CCCN(C1CCN(S(=O)(=O)c2ccc(OC)c(OC)c2)C1)S(=O)(=O)c1ccc(OC)c(OC)c1` (centres unmarked) [Example 56, N-(1-{[3,4-bis(methyloxy)phenyl]sulfonyl}-3-pyrrolidinyl)-3,4-bis(methyloxy)-N-propylbenzenesulfonamide] had an Emax of 0 to 50% and a pEC50 of 6.00 to 6.90. `COc1ccc(S(=O)(=O)N2CCN(S(=O)(=O)c3ccc(OC)c(OC)c3)C(=O)C2)cc1OC` [Example 76, 1,4-bis{[3,4-bis(methyloxy)phenyl]sulfonyl}-2-piperazinone] had a maximal response (Emax) of 51 to 75% and a pEC50 of 5.00 to 5.90. In turn, `CCc1cc(S(=O)(=O)N2CCCN(S(=O)(=O)c3ccc(OC)c(OC)c3)CC2)ccc1OC` [Example 41, 1-{[3,4-bis(methyloxy)phenyl]sulfonyl}-4-{[3-ethyl-4-(methyloxy)phenyl]sulfonyl}hexahydro-1H-1,4-diazepine] had an Emax of 51 to 75% and a pEC50 of 6.00 to 6.90. As for `COc1ccc(S(=O)(=O)N2CCN(S(=O)(=O)c3ccc(OC)c(OC)c3)C2=O)cc1OC` [Example 23, 1,3-bis{[3,4-bis(methyloxy)phenyl]sulfonyl}-2-imidazolidinone], the Emax is 0 to 50% and the negative logarithm of the EC50 (pEC50) is 5.00 to 5.90. Molecule `COc1ccc(S(=O)(=O)N2C[C@@H](C)N(S(=O)(=O)c3ccc(OC)c(OC)c3)[C@@H](C)C2)cc1` [Example 35, 1-{[3,4-bis(methyloxy)phenyl]sulfonyl}-2,6-cis-dimethyl-4-{[4-(methyloxy)phenyl]sulfonyl}piperazine] showed an Emax of 51 to 75% and a pEC50 of 6.00 to 6.90.

In turn, `CCN([C@H]1CCN(S(=O)(=O)c2ccc(OC)c(OC)c2)C1)S(=O)(=O)c1ccc(OC)c(OC)c1` [Example 62, N-((3S)-1-{[3,4-bis(methyloxy)phenyl]sulfonyl}-3-pyrrolidinyl)-N-ethyl-3,4-bis(methyloxy)benzenesulfonamide] gave a maximum response (Emax) of 76 to 100% and a negative-log EC50 (pEC50) of 5.00 to 5.90. On the same counts, the results for `CCN(CCN(C1CC1)S(=O)(=O)c1ccc(OC)c(OC)c1)S(=O)(=O)c1ccc(OC)c(OC)c1` [Example 90] are 51 to 75% and 6.00 to 6.90. On to `CC=CCN(CCN(C)S(=O)(=O)c1ccc(OC)c(OC)c1)S(=O)(=O)c1ccc(OC)c(OC)c1` [Example 75, N-{2-[{[3,4-bis(methyloxy)phenyl]sulfonyl}(2-buten-1-yl)amino]ethyl}-N-methyl-3,4-bis(methyloxy)benzenesulfonamide], for which the maximum response (Emax) lay in the range of 76 to 100% and the pEC50 was 6.00 to 6.90. `COc1ccc(S(=O)(=O)N2CCN(S(=O)(=O)c3ccc(OC)c(OC)c3)CC(F)(F)C2)cc1OC` [Example 53, 1,4-bis{[3,4-bis(methyloxy)phenyl]sulfonyl}-6,6-difluorohexahydro-1H-1,4-diazepine] had an Emax of 51 to 75% and a pEC50 of 6.00 to 6.90. On the same counts, the results for `COc1ccc(S(=O)(=O)N(C)C[C@@H]2CCCN2S(=O)(=O)c2ccc(OC)c(OC)c2)cc1OC` [Example 94, N-[((2S)-1-{[3,4-bis(methyloxy)phenyl]sulfonyl}-2-pyrrolidinyl)methyl]-N-methyl-3,4-bis(methyloxy)benzenesulfonamide] are 76 to 100% and 5.00 to 5.90.

For `CCc1cc(S(=O)(=O)N2CCN(S(=O)(=O)c3ccc(OC)c(OC)c3)CC2)ccc1OC` [Example 64, 1-{[3,4-bis(methyloxy)phenyl]sulfonyl}-4-{[3-ethyl-4-(methyloxy)phenyl]sulfonyl}piperazine], the Emax lay in the range of 76 to 100% and the pEC50 was 6.00 to 6.90. Molecule `CCC1CN(S(=O)(=O)c2ccc(OC)c(OC)c2)C(C)CN1S(=O)(=O)c1ccc(OC)c(OC)c1` (centres unmarked) [Example 46, 1,4-bis{[3,4-bis(methyloxy)phenyl]sulfonyl}-2-ethyl-5-methylpiperazine] gave a maximal effect (Emax) of 51 to 75% and a pEC50 of 5.00 to 5.90. Turning to `CCc1cc(S(=O)(=O)N(C)CCN(C)S(=O)(=O)c2ccc(OC)c(OC)c2)ccc1OC` [Example 43, N-{2-[{[3,4-bis(methyloxy)phenyl]sulfonyl}(methyl)amino]ethyl}-N-methyl-3-ethyl-4-(methyloxy)benzenesulfonamide], the maximal effect (Emax) was 0 to 50% and the pEC50 was 6.00 to 6.90. In turn, `COc1ccc(S(=O)(=O)NCCNS(=O)(=O)c2ccc(OC)c(OC)c2)cc1OC` [Example 26, N,N′-1,2-ethanediylbis[3,4-bis(methyloxy)benzenesulfonamide]] showed an Emax of 76 to 100% and a pEC50 of 5.00 to 5.90.

`COc1cccc(S(=O)(=O)N2[C@H](C)CN(S(=O)(=O)c3ccc(OC)c(OC)c3)C[C@@H]2C)c1` [Example 80] gave a maximal response (Emax) of 51 to 75% and a negative logarithm of the EC50 (pEC50) of 5.00 to 5.90. On to `COc1ccc(S(=O)(=O)N(C)C[C@H]2CCCN2S(=O)(=O)c2ccc(OC)c(OC)c2)cc1OC` [Example 97, N-[((2R)-1-{[3,4-bis(methyloxy)phenyl]sulfonyl}-2-pyrrolidinyl)methyl]-N-methyl-3,4-bis(methyloxy)benzenesulfonamide], for which the Emax lay within 76 to 100% and the negative logarithm of the EC50 (pEC50) is greater than 6.90. Regarding `COc1ccc(S(=O)(=O)N2C[C@H](C)N(S(=O)(=O)c3ccc(OC)c(OC)c3)C[C@H]2C)cc1OC` [Example 22, trans-1,4-bis{[3,4-bis(methyloxy)phenyl]sulfonyl}-2,5-dimethylpiperazine], the Emax was 51 to 75% and the pEC50 was 5.00 to 5.90. Taken in the same sequence, the figures for `COc1ccc(S(=O)(=O)N(C)CCN(C)S(=O)(=O)c2ccc3c(c2)OCCN3C)cc1OC` [Example 12, N-methyl-N-{2-[{[3,4-bis(methyloxy)phenyl]sulfonyl}(methyl)amino]ethyl}-4-methyl-3,4-dihydro-2H-1,4-benzoxazine-7-sulfonamide] were 76 to 100% and 5.00 to 5.90. Consider `COc1ccc(S(=O)(=O)N(C)CCN(C)S(=O)(=O)c2ccc3c(c2)OCCO3)cc1OC` [Example 13, N-{2-[{[3,4-bis(methyloxy)phenyl]sulfonyl}(methyl)amino]ethyl}-N-methyl-2,3-dihydro-1,4-benzodioxin-6-sulfonamide], for which the Emax lay in the range of 51 to 75% and the negative-log EC50 (pEC50) is 5.00 to 5.90. In the case of `CCN(C[C@H]1CCCN1S(=O)(=O)c1ccc(OC)c(OC)c1)S(=O)(=O)c1ccc(OC)c(OC)c1` [Example 98, N-[((2R)-1-{[3,4-bis(methyloxy)phenyl]sulfonyl}-2-pyrrolidinyl)methyl]-N-ethyl-3,4-bis(methyloxy)benzenesulfonamide], the Emax fell in the range of 76 to 100% and the pEC50 was greater than 6.90.

`COc1ccc(S(=O)(=O)N2CC(C)N(S(=O)(=O)c3ccc(OC)c(OC)c3)CC2C)cc1OC` (centres unmarked) [Example 18, 1,4-bis{[3,4-bis(methyloxy)phenyl]sulfonyl}-2,5-dimethylpiperazine] had an Emax of 51 to 75% and a pEC50 greater than 6.90. For the molecule `COc1ccc(S(=O)(=O)N2C[C@@H](C)N(S(=O)(=O)c3ccc(OC)c(OC)c3)[C@@H](C)C2)cc1F` [Example 32, 1-{[3,4-bis(methyloxy)phenyl]sulfonyl}-4-{[3-fluoro-4-(methyloxy)phenyl]sulfonyl}-2,6-cis-dimethylpiperazine], the maximum response (Emax) is 51 to 75% and the negative-log EC50 (pEC50) is 6.00 to 6.90. With `COc1ccc(S(=O)(=O)N2CCN(S(=O)(=O)c3ccc(OC)c(OC)c3)c3ccccc32)cc1OC` [Example 83], the maximal response (Emax) lay within 51 to 75% and the pEC50 is 6.00 to 6.90.

The record behind these values is US20090069302A1 (SMITHKLINE BEECHAM CORPORATION, priority 2006, published 2009).
